Assay in all cases: relative viability (nuclei count vs DMSO), 5 days (fraction); higher = more cells survive
Compound in the test “Pazopanib + Bortezomib”: Cc1ccc(Nc2nccc(N(C)c3ccc4c(C)n(C)nc4c3)n2)cc1S(N)(=O)=O [Pazopanib] + CC(C)C[C@H](NC(=O)[C@H](Cc1ccccc1)NC(=O)c1cnccn1)B(O)O [Bortezomib] (partner 0.002 µM)
The method in brief: (§1)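 Lung cancer cell lines in 1536-well plates were dosed by pin tool the day after seeding, either with one drug alone or with a fixed anchor-drug dose plus five library-drug doses (not always all listed) in √10 steps. After 5 days, cells were fixed and their nuclei stained in one step (final 0.05% Triton X-100, 1% formaldehyde, 1 ug/ml Hoechst), then counted on 4× images. Relative viability is the nuclei count in treated wells divided by that in vehicle wells. Values are medians of duplicate plates.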

Compound in the test “Ponatinib + Crizotinib”: Cc1ccc(C(=O)Nc2ccc(CN3CCN(C)CC3)c(C(F)(F)F)c2)cc1C#Cc1cnc2cccnn12 [Ponatinib] + C[C@@H](Oc1cc(-c2cnn(C3CCNCC3)c2)cnc1N)c1c(Cl)ccc(F)c1Cl [Crizotinib] (partner 1 µM)
The method in brief: as §1

Compound in the test “Pazopanib + AZD7762”: Cc1ccc(Nc2nccc(N(C)c3ccc4c(C)n(C)nc4c3)n2)cc1S(N)(=O)=O [Pazopanib] + NC(=O)Nc1cc(-c2cccc(F)c2)sc1C(=O)N[C@H]1CCCNC1 [AZD7762] (partner 0.2 µM)
The method in brief:
as §1

Compound in the test “Ponatinib + Bortezomib”: Cc1ccc(C(=O)Nc2ccc(CN3CCN(C)CC3)c(C(F)(F)F)c2)cc1C#Cc1cnc2cccnn12 [Ponatinib] + CC(C)C[C@H](NC(=O)[C@H](Cc1ccccc1)NC(=O)c1cnccn1)B(O)O [Bortezomib] (partner 0.002 µM)
The method in brief: as §1

Consider PC-14, for which the relative viability is 0.976 with Pazopanib + Bortezomib (first compound 0.01 µM); 0.805 with Pazopanib + Bortezomib (first compound 0.03162 µM); 1.16 with Pazopanib + Bortezomib (first compound 0.1 µM); 0.858 in the test with Pazopanib + Bortezomib (first compound 0.3162 µM); 0.856 in the test with Pazopanib + Bortezomib (first compound 1 µM); 0.866 with Ponatinib + Crizotinib (first compound 0.002 µM). Moreover, the relative viability was 0.901 in the test with Ponatinib + Crizotinib (first compound 0.006325 µM); 0.966 in the test with Ponatinib + Crizotinib (first compound 0.06325 µM); 0.946 with Ponatinib + Crizotinib (first compound 0.2 µM); 0.422 with Pazopanib + AZD7762 (first compound 0.01 µM); 0.328 with Pazopanib + AZD7762 (first compound 0.03162 µM); 0.268 in the test with Pazopanib + AZD7762 (first compound 0.1 µM). Further, the relative viability with Pazopanib + AZD7762 (first compound 0.3162 µM) came out at 0.372; with Pazopanib + AZD7762 (first compound 1 µM), 0.426; with Ponatinib + Bortezomib (first compound 0.002 µM), 0.846; with Ponatinib + Bortezomib (first compound 0.006325 µM) it was 0.944; in the test with Ponatinib + Bortezomib (first compound 0.06325 µM), 1.02; with Ponatinib + Bortezomib (first compound 0.2 µM) it was 0.875.

Consider CAL-12T, for which the relative viability in the test with Pazopanib + Bortezomib (first compound 0.01 µM) worked out at 1.05; with Pazopanib + Bortezomib (first compound 0.03162 µM) it was 1.01; with Pazopanib + Bortezomib (first compound 0.1 µM) it was 0.843; in the test with Pazopanib + Bortezomib (first compound 0.3162 µM), 1.04; with Pazopanib + Bortezomib (first compound 1 µM), 1.35; with Ponatinib + Crizotinib (first compound 0.002 µM), 0.774. Besides, the relative viability with Ponatinib + Crizotinib (first compound 0.006325 µM) turned out to be 0.653; with Ponatinib + Crizotinib (first compound 0.06325 µM) it was 0.756; with Ponatinib + Crizotinib (first compound 0.2 µM), 0.614; in the test with Pazopanib + AZD7762 (first compound 0.01 µM) it was 0.594; with Pazopanib + AZD7762 (first compound 0.03162 µM), 0.579; with Pazopanib + AZD7762 (first compound 0.1 µM), 0.527. For the same cell line, the relative viability came to 0.568 with Pazopanib + AZD7762 (first compound 0.3162 µM); 0.652 with Pazopanib + AZD7762 (first compound 1 µM); 0.634 in the test with Ponatinib + Bortezomib (first compound 0.002 µM); 0.9 with Ponatinib + Bortezomib (first compound 0.006325 µM); 1.39 with Ponatinib + Bortezomib (first compound 0.06325 µM); 1.09 with Ponatinib + Bortezomib (first compound 0.2 µM).

The values above are taken from the supplement of paper PMC10307832.
